# In US20210317092A1 (BAYER PHARMA AKTIENGESELLSCHAFT, priority 2016, published 2021):
# Read-outs that look alike come from different tables or passages of the source.
# Target: T1, human Bradykinin B1 receptor (Homo sapiens, UniProt P46663)
# T1 construct: host or cells: CHO-K1
# T1 sequence (P46663 1-353): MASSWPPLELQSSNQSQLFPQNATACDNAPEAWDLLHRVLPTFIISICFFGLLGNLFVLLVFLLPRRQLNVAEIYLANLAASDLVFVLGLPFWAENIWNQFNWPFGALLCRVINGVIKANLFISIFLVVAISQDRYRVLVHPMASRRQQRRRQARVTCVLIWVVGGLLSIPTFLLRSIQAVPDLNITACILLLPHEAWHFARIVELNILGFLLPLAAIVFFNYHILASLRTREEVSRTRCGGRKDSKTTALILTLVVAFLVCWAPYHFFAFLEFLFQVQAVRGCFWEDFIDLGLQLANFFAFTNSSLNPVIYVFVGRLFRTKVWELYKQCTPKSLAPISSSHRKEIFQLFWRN
# Test: Calcium flux Assay (FLIPR) with recombinant CHO-K1 cells expressing human Bradykinin B1 receptor, in presence (hB1 IC50) or absence (hB1 free IC50) of 0.1% BSA
# Type: cell-based
# Experimental: The potency to inhibit the Bradykinin B1 receptor was determined for the compounds of this invention in a cell-based fluorescent calcium-mobilisation assay. The assay measures the ability of test compounds to inhibit Bradykinin B1 receptor agonist-induced increase of intracellular free Ca^2+ in the cell line expressing Bradykinin B1 receptor. […] The change of the intracellular Ca^2+ concentration is monitored with a fluorescent plate reader FLIPR TETRA® (Molecular Devices).
# Calcium flux Assays (FLIPR) with cells expressing human Bradykinin B1 receptor (hB1)
# CHO-K1 cell line expressing human Bradykinin B1 receptor was purchased from Euroscreen (Gosselies, Belgium, with reference name hB1-D1). The cells were grown in Nutrient Mixture Ham's F12 (Sigma) containing 10% Foetal bovine serum (Sigma) and 400 μg/mL G418 (Sigma), 5 μg/mL puromycim (Sigma). […]
# Cells were seeded in a volume of 50 μL in medium without antibiotics and incubated overnight in a humidified atmosphere with 5% CO2 at 37° C. […] The calcium indicator loaded cells were incubated at 37° C. for 2 hrs. Extracellular dye was then removed and each well was filled with 45 μL of assay buffer. Cell plates were kept in dark until used. Compound examples were assayed at 8 concentrations in triplicate. Serial 10-fold dilutions in 100% DMSO were made at a 100-times higher concentration than the final concentration, and then diluted 1:10 in assay buffer. 5 μL of each diluted compound was added to the well of cell plates (yielding final concentration with 1% DMSO), and incubated for 30 min at 28° C. before the addition of Bradykinin B1 receptor agonist on the FLIPR instrument.
# A peptide antagonist Lys-(Des-Arg-Leu)-Bradykinin (Bachem, Brackley) at 20 µM was used to determine the full inhibition as control.
# Peak fluorescence was used to determine the response to agonist obtained at each concentration of compound examples by the following equation:
# % Response=100*(RFU(compound)−RFU(control))/(RFU(DMSO)−RFU(control)) • RFU means relative fluorescence units. • Control means full inhibition by the peptide antagonist Lys-(Des-Arg-Leu)-Bradykinin at 20 µM.
# The response values were plotted against the logarithm of the compound concentrations. The compound examples were tested in triplicates per plate and mean values were plotted in Excel XLfit to determine IC50 values, percentage of maximal inhibition and the Hill slopes.
# [1] = in presence of 0.1% BSA, read-out: hB1 IC50
# [2] = in absence of 0.1% BSA, read-out: hB1 free IC50
IC50 [1] [nM],IC50 [2] [nM],Compound
394,,"CCOc1ccc(-c2ccc(NC(=O)C(C)(C)c3cccc(Cl)c3)cc2-c2nnn[nH]2)cn1 [Example 67, 2-(3-chlorophenyl)-N-[4-(6-ethoxypyridin-3-yl)-3-(1H-tetrazol-5-yl)phenyl]-2-methyl-propanamide]"
1410,,"CCOc1ccc(-c2ccc(NC(=O)C3(c4cccc(Cl)c4)CCC3)cc2-c2nnn[nH]2)cn1 [Example 68, 1-(3-chlorophenyl)-N-[4-(6-ethoxypyridin-3-yl)-3-(1H-tetrazol-5-yl)phenyl] cyclobutane-carboxamide]"
22.7,14.1,"CCOc1ccc(-c2ccc(NC(=O)C3(c4ccc(Cl)cc4F)CC3)cc2-c2nnn[nH]2)cn1 [Example 75, 1-(4-chloro-2-fluorophenyl)-N-[4-(6-ethoxypyridin-3-yl)-3-(1H-tetrazol-5-yl)phenyl] cyclopropane-carboxamide]"
37.1,39.3,"CCOc1ccc(-c2ccc(NC(=O)C3(c4ccccc4Cl)CC3)cc2-c2nnn[nH]2)cn1 [Example 93, 1-(2-chlorophenyl)-N-[4-(6-ethoxypyridin-3-yl)-3-(1H-tetrazol-5-yl)phenyl] cyclopropane-carboxamide]"
46.4,,"CCOc1ccc(-c2ccc(NC(=O)C3(c4cc(OC)ccc4F)CC3)cc2-c2nnn[nH]2)cn1 [Example 104, N-[4-(6-ethoxypyridin-3-yl)-3-(1H-tetrazol-5-yl)phenyl]-1-(2-fluoro-5-methoxyphenyl) cyclopropane-carboxamide]"
134,177,"CCOc1ccc(-c2ccc(NC(=O)C3(c4cccc(Cl)n4)CC3)cc2-c2nnn[nH]2)cn1 [Example 107, 1-(6-chloropyridin-2-yl)-N-[4-(6-ethoxypyridin-3-yl)-3-(1H-tetrazol-5-yl)phenyl] cyclopropane-carboxamide]"
12.2,,"CCOc1ccc(-c2ccc(NC(=O)C3(C4CCC(C)(C)CC4)CC3)cc2-c2nnn[nH]2)cn1 [Example 109, 1-(4,4-dimethylcyclo-hexyl)-N-[4-(6-ethoxypyridin-3-yl)-3-(1H-tetrazol-5-yl)phenyl] cyclopropane-carboxamide]"
169,,"COc1ccc(-c2ccc(NC(=O)C3(c4ccc(C)cc4)CC3)cc2-c2nnn[nH]2)cc1 [Example 115, N-[4′-methoxy-2-(1H-tetrazol-5-yl)biphenyl-4-yl]-1-(4-methylphenyl) cyclopropane-carboxamide]"
1820,,"COc1ccc(-c2ccc(NC(=O)C3(c4cccc(Cl)c4)CC3)cc2-c2nnn[nH]2)c(C)c1 [Example 118, 1-(3-chlorophenyl)-N-[4′-methoxy-2′-methyl-2-(1H-tetrazol-5-yl)biphenyl-4-yl]cyclopropane carboxamide]"

# Second part, the molecule before the results:
Compound,IC50 [1] [nM],IC50 [2] [nM]
"COc1ccc(-c2ccc(NC(=O)C(C)(C)c3cccc(Cl)c3)cc2-c2nnn[nH]2)cc1OC [Example 61, 2-(3-chlorophenyl)-N-[3′,4′-dimethoxy-2-(1H-tetrazol-5-yl)biphenyl-4-yl]-2-methyl-propanamide]",2050,
"COc1ccc(-c2ccc(NC(=O)C3(c4cccc(Cl)c4)CCC3)cc2-c2nnn[nH]2)cc1OC [Example 62, 1-(3-chlorophenyl)-N-[3′,4′-dimethoxy-2-(1H-tetrazol-5-yl)biphenyl-4-yl]cyclobutane-carboxamide]",2430,
"CCOc1ccc(-c2ccc(NC(=O)C3(c4ccc(OC(F)(F)F)cc4)CC3)cc2-c2nnn[nH]2)cn1 [Example 74, N-[4-(6-ethoxypyridin-3-yl)-3-(1H-tetrazol-5-yl)phenyl]-1-[4-(trifluoromethoxy)phenyl] cyclopropane-carboxamide]",18.7,7.76
"CCOc1ccc(-c2ccc(NC(=O)C3(c4ccc(C)c(F)c4)CC3)cc2-c2nnn[nH]2)cn1 [Example 76, N-[4-(6-ethoxypyridin-3-yl)-3-(1H-tetrazol-5-yl)phenyl]-1-(3-fluoro-4-methylphenyl) cyclopropane-carboxamide]",24,12
"CCOc1ccc(-c2ccc(NC(=O)C3(c4cc(F)cc(F)c4)CC3)cc2-c2nnn[nH]2)cn1 [Example 84, 1-(3,5-difluorophenyl)-N-[4-(6-ethoxypyridin-3-yl)-3-(1H-tetrazol-5-yl)phenyl] cyclopropane-carboxamide]",41.8,19
"CCOc1ccc(-c2ccc(NC(=O)C3(c4ccc(Cl)cn4)CC3)cc2-c2nnn[nH]2)cn1 [Example 85, 1-(5-chloropyridin-2-yl)-N-[4-(6-ethoxypyridin-3-yl)-3-(1H-tetrazol-5-yl)phenyl] cyclopropane-carboxamide]",63.1,
"CCOc1ccc(-c2ccc(NC(=O)C3(c4ccc(F)c(OC)c4)CC3)cc2-c2nnn[nH]2)cn1 [Example 87, N-[4-(6-ethoxypyridin-3-yl)-3-(1H-tetrazol-5-yl)phenyl]-1-(4-fluoro-3-methoxyphenyl) cyclopropane-carboxamide]",88,60
"CCOc1ccc(-c2ccc(NC(=O)C3(C)CC3)cc2-c2nnn[nH]2)cn1 [Example 88, N-[4-(6-ethoxypyridin-3-yl)-3-(1H-tetrazol-5-yl)phenyl]-1-methyl-cyclopropane-carboxamide]",111,
"CCOc1ccc(-c2ccc(NC(=O)C3(CC(C)C)CC3)cc2-c2nnn[nH]2)cn1 [Example 89, N-[4-(6-ethoxypyridin-3-yl)-3-(1H-tetrazol-5-yl)phenyl]-1-isobuty-l cyclopropane-carboxamide]",615,541
"CCOc1ccc(-c2ccc(NC(=O)C3(C(C)C)CC3)cc2-c2nnn[nH]2)cn1 [Example 90, N-[4-(6-ethoxypyridin-3-yl)-3-(1H-tetrazol-5-yl)phenyl]-1-isopropyl-cyclopropane-carboxamide]",1560,
"CCOc1ccc(-c2ccc(NC(=O)C3(c4cccc(CC)c4)CC3)cc2-c2nnn[nH]2)cn1 [Example 95, N-[4-(6-ethoxypyridin-3-yl)-3-(1H-tetrazol-5-yl)phenyl]-1-(3-ethylphenyl) cyclopropane-carboxamide]",14.5,10.4
"CCOc1ccc(-c2ccc(NC(=O)C3(c4cc(F)cc(OC)c4)CC3)cc2-c2nnn[nH]2)cn1 [Example 103, N-[4-(6-ethoxypyridin-3-yl)-3-(1H-tetrazol-5-yl)phenyl]-1-(3-fluoro-5-methoxyphenyl) cyclopropane-carboxamide]",28.1,
"CCOc1ccc(-c2ccc(NC(=O)C3(c4cccc(F)c4Cl)CC3)cc2-c2nnn[nH]2)cn1 [Example 106, 1-(2-chloro-3-fluorophenyl)-N-[4-(6-ethoxypyridin-3-yl)-3-(1H-tetrazol-5-yl)phenyl] cyclopropane-carboxamide]",56,
"CCOc1ccc(-c2ccc(NC(=O)C3(c4ccc(Cl)nc4)CC3)cc2-c2nnn[nH]2)cn1 [Example 108, 1-(6-chloropyridin-3-yl)-N-[4-(6-ethoxypyridin-3-yl)-3-(1H-tetrazol-5-yl)phenyl] cyclopropane-carboxamide]",338,
"COc1ccc(-c2ccc(NC(=O)C3(c4cccc(Cl)c4)CC3)cc2-c2nnn[nH]2)cc1C [Example 116, 1-(3-chlorophenyl)-N-[4′-methoxy-3′-methyl-2-(1H-tetrazol-5-yl)biphenyl-4-yl]cyclopropane carboxamide]",177,
"COc1ccc(-c2ccc(NC(=O)C3(c4cccc(Cl)c4)CC3)cc2-c2nnn[nH]2)cc1Cl [Example 117, N-[3′-chloro-4′-methoxy-2-(1H-tetrazol-5-yl)biphenyl-4-yl]-1-(3-chlorophenyl) cyclopropane-carboxamide]",448,
"COCc1ccc(-c2ccc(NC(=O)C3(c4cccc(Cl)c4)CC3)cc2-c2nnn[nH]2)cc1C [Example 124, 1-(3-chlorophenyl)-N-[4′-(methoxymethyl)-3′-methyl-2-(1H-tetrazol-5-yl)biphenyl-4-yl]cyclopropane carboxamide]",38.3,
